{"source": "paper PMC8032764", "about": "(Scientific Reports, 2021)", "key": {"[1]": {"tested_on": "binding sites of [3H]-Ro 15-4513 in the hippocampus", "conditions": "similar experiments; cited from earlier work"}, "GABAA α3β3γ2": {"target": "GABAA α3β3γ2", "conditions": "Table S4a, cited from earlier work"}, "GABAA α5β3γ2": {"target": "GABAA α5β3γ2", "conditions": "Table S4a, read-out: Ki α5β3γ2, cited from earlier work"}, "non-impaired rodents": {"tested_on": "non-impaired rodents", "assay": "Cognitive performance in non-impaired rodents", "format": "in vivo", "conditions": "data not shown"}, "GABAA α1β3γ2": {"target": "GABAA α1β3γ2", "conditions": "Table S4a, cited from earlier work"}, "CYP1A2": {"tested_on": "CYP1A2", "conditions": "rats, reduced plasma exposure on chronic dosing; cited from earlier work"}, "GABAA α2β3γ2": {"target": "GABAA α2β3γ2", "conditions": "Table S4a, cited from earlier work"}, "human GABAA α5β3γ2": {"target": "human GABAA α5β3γ2 (Homo sapiens, UniProt P18507+P31644)", "sequence (P31644 32-462)": "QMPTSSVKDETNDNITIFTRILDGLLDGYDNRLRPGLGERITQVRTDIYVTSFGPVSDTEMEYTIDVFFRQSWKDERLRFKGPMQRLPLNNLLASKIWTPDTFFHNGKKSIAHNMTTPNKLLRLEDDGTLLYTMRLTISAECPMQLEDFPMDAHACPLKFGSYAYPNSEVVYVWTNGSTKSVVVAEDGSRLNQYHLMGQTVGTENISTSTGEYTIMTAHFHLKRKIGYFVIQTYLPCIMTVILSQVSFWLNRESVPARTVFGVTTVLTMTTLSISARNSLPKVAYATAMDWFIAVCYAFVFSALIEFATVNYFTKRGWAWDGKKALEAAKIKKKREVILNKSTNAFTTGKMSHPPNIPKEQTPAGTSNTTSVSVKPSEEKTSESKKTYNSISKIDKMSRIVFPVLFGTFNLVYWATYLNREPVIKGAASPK", "sequence (P28472 26-473 partner)": "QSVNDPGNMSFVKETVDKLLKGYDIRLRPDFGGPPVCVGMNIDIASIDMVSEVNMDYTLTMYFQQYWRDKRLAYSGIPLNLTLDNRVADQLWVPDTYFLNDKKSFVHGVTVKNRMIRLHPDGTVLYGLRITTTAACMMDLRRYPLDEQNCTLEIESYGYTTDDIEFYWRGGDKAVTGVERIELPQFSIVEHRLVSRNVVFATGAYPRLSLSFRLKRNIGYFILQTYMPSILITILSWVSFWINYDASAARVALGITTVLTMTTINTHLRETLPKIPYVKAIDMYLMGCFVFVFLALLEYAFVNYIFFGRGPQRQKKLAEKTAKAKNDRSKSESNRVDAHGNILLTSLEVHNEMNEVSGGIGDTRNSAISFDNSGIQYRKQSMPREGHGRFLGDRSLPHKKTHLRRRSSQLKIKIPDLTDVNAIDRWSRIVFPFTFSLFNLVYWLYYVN", "sequence (P18507 40-475)": "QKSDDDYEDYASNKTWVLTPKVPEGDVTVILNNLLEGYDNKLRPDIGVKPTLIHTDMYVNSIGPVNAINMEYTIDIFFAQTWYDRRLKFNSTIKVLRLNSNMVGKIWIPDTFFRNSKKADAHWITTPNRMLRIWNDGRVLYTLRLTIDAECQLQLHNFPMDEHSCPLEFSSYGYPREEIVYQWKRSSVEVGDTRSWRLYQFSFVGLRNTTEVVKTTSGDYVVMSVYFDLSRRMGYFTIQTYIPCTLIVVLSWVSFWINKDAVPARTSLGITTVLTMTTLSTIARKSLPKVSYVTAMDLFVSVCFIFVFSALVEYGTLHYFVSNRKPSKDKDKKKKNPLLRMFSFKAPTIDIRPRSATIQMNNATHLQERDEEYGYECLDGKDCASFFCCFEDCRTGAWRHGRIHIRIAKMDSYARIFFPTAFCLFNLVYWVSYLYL", "assay": "Two-electrode voltage clamp in Xenopus oocytes, current induced by EC10 of GABA", "format": "cell-based", "parameters": "expressed in transfected cells; host or cells: Xenopus laevis oocytes, cRNA injection", "conditions": "1000 nM, n = 12, not shown", "procedure": "Freshly prepared oocytes of maturation stage VI were bought from Ecocyte Bioscience (Castrop-Rauxel, Germany) and, after overnight delivery, plated into 96-well plates (Greiner no. 651101) for microinjection on a ROBOOCYTE R16 system (Multichannel Systems MCS GmbH, Reutlingen, Germany). Each oocyte was injected with roughly 50 nL of RNA solution. The solution for expressing receptors composed of the human α1, β2 and γ2 subunits contained 3 pg/nL of α1 and β2 RNA and 15 pg/nL of γ2 RNA. The solution for expressing human α2β3γ2 receptors contained 2.5 pg/nL of α2 and β3 RNA, 5 pg/nL of γ2 RNA and 10 pg/nL of GABARAP RNA. The solution for expressing human α3β3γ2 receptors contained 1.3 pg/nL of α3 and β3 RNA and 6.5 pg/nL of γ2 RNA. The solution for expressing human α5β3γ2 receptors contained 1.3 pg/nL of α5 and β3 RNA and 13 pg/nL of γ2 RNA. […] After the microinjection the oocytes were kept at 20 °C temperature until the electrophysiological experiment. Experiments were done 3 to 5 days later on the ROBOOCYTE instrument which employs the two-microelectrode voltage-clamp technique for membrane voltage control and current measurement. […] During current recording and compound testing the cell membrane was constantly clamped to − 80 mV. Current signals were recorded and stored on a PC-type computer using the ROBOOCYTE software.\nDuring the microinjection and up to the electrophysiological experiment the oocytes were kept in a solution containing 88 mM NaCl, 1 mM KCl, 2.5 mM NaHCO3, 10 mM HEPES (AppliChem GmbH, Darmstadt, Germany), 0.82 MgSO4, 0.33 mM Ca(NO3)2, 0.33 mM CaCl2, 100 U/mL penicillin (GIBCO, ThermoFisher Scientific) and 100 µg/mL streptomycine (GIBCO, ThermoFisher Scientific). The pH was adjusted to 7.5. During the experiment the voltage-clamped oocyte was constantly superfused by a solution containing 90 mM NaCl, 1 mM KCl, 5 mM HEPES (AppliChem), 1 mM MgCl2 and 1 mM CaCl2 (pH 7.4). GABA and test compounds were added to this solution. GABA concentrations were chosen according to previously determined concentration–response relations for the different human GABAA receptor subunit combinations. Concentrations evoking approximately 10% of a maximal response were selected, i.e., 8 µM for α1β2γ2, 6 µM for α2β3γ2, 10 µM for α3β3γ2 and 5 µM for α5β3γ2. Solutions containing GABA or test compounds were freshly prepared at least every second day. […] Compounds were further diluted in DMSO and finally in extracellular saline to reach a DMSO concentration of 0.1%. The same amount of DMSO was added to the control solutions without test compounds.\nDuring the experiment the solutions were fed into the well containing the voltage-clamped oocyte via Teflon tubings connected by electromagnetic valves which allowed rapid switching between different solutions (controlled by the ROBOCYTE software). Approximately 1–2 min after impaling an oocyte and switching to voltage-clamp mode GABA was applied for 90 s to record a control response. Thereafter the oocyte was washed with saline for 160 s followed by another 90 s GABA application. Then 30 s after the onset of the second GABA application the system switched to a solution containing GABA plus the test compound. Each oocyte was used for testing one concentration of a single test compound (for α5β3γ2: 1 nM: n = 8, 10 nM: n = 8, 100 nM: n = 7, 1000 nM: n = 7).\nIn this case each GABA application lasted 110 s and the rest period between the two GABA applications was 190 s long.\nOn each 96-well plate 3–6 oocytes were used for testing a known NAM at the BZD binding site, β-CCM (FG7106), as a positive control. […] Maximally effective concentrations of β-CCM were used for each subunit combination, i.e., 100 nM β-CCM for α1β2γ2, 300 nM for α2β3γ2 or α3β3γ2 and 1 µM for α5β3γ2."}, "healthy volunteers": {"tested_on": "healthy volunteers", "assay": "Resting state EEG in healthy volunteers", "format": "in vivo, human", "conditions": "midazolam single dose, 1 h post dose", "procedure": "Full details of the protocol can be found in the Supplementary Information. The study was registered on October 2, 2014 with clinicaltrials.gov identifier NCT02254759. The DDI study was approved by the National Research Ethics Service (NRES) Committee South Central—Berkshire B. EEG was included in the study as one of the pharmacodynamic outcome measures.\nResting state EEG (4 min eyes open, 4 min eyes closed) was recorded at 4 days 1 h and 4 h after dosing at morning (similar time at baseline day). […] The EEG recording from day 16 is not reported here. The EEG technician kept the subject alert (vigilance controlled resting state condition). As soon as drowsiness patterns appeared (slow rolling eye movements, attenuated alpha rhythm replaced by low amplitude), the subject was aroused by auditory stimuli (tapping or clicking).\nEEG was recorded from 19 Ag/AgCl electrodes arranged according to the 10/20 system and mounted in an elastic cap. EOG was recorded simultaneously from five electrodes. […]\nPower spectral estimates were derived for logarithmically scaled frequencies with a logarithmic frequency smoothing using Morlet Wavelets with a spectral smoothing of 1/2 octave (f/σf = 5.83). […] For analyses of “relative power” the power was normalized to 1 across the frequency range analyzed. […]"}, "preclinical species": {"tested_on": "preclinical species", "parameters": "method as in PMID 15918586", "conditions": "cited from earlier work"}, "humans": {"tested_on": "humans", "conditions": "experimental medicine study; cited from earlier work"}, "human α6β3γ2": {"target": "T1, human α6β3γ2 (Homo sapiens, UniProt P18507+Q16445)", "T1 construct": "expressed in transfected cells; host or cells: HEK293-EBNA, transient", "T1 sequence (Q16445 20-453)": "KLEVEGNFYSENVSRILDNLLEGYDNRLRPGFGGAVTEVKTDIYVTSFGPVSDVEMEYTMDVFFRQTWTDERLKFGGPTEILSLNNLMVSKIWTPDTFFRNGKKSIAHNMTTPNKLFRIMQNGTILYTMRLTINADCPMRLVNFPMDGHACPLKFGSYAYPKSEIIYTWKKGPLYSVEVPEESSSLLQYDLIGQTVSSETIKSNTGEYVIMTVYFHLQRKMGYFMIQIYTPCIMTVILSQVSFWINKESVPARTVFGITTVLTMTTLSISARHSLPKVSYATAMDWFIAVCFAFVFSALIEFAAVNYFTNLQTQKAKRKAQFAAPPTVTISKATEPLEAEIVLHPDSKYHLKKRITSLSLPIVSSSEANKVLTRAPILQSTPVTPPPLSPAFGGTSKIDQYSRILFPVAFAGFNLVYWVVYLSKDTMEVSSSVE", "T1 sequence (P28472 26-473 partner)": "as the sequence (P28472 26-473 partner) above", "T1 sequence (P18507 40-475)": "as the sequence (P18507 40-475) above", "conditions": "previously determined; read-out: Kd of the radiolabel; cited from earlier work"}, "healthy elderly humans": {"tested_on": "healthy elderly humans", "conditions": "cited from earlier work"}}, "note": "Read-outs that look alike come from different tables or passages of the source."}
{"smiles": "FC(F)c1ncn2c1Cn1ncnc1-c1cc(Br)ccc1-2", "note": "[RO4938581]", "values": [{"measurement": "binding sites of [3H]-Ro 15-4513 in the hippocampus occupied by the compound", "setting": "[1]", "result": "up to 90%"}, {"measurement": "Ki", "setting": "GABAA α3β3γ2; ref Ballard et al., 2008", "result": 80, "unit": "nM"}, {"measurement": "Ki", "setting": "GABAA α5β3γ2; ref Ballard et al., 2008", "result": 4.6, "unit": "nM"}, {"measurement": "enhancement of cognitive performance", "setting": "non-impaired rodents", "result": "have not shown enhancement of cognitive performance"}, {"measurement": "Ki", "setting": "GABAA α1β3γ2; ref Ballard et al., 2008", "result": 174, "unit": "nM"}, {"measurement": "CYP1A2 autoinduction", "setting": "CYP1A2", "result": "strong CYP1A2 autoinduction properties"}, {"measurement": "Ki", "setting": "GABAA α2β3γ2; ref Ballard et al., 2008", "result": 185, "unit": "nM"}]}
{"smiles": "Cc1ncc2n1-c1ccc(Cl)cc1C(c1ccccc1F)=NC2", "note": "[midazolam, reference compound]", "values": [{"measurement": "increase of the GABA-induced current", "setting": "human GABAA α5β3γ2", "result": "145 ± 9", "unit": "%"}, {"measurement": "change of relative EEG power in the beta band", "setting": "healthy volunteers", "result": "32.2 ± 7.04", "unit": "%"}]}
{"smiles": "Cc1cc(-c2nnc3c4ccccc4c(OCc4cn(C)nn4)nn23)no1", "note": "[α5IA]", "values": [{"measurement": "Ki", "setting": "GABAA α3β3γ2; ref Dawson et al., 2006", "result": 0.6, "unit": "nM"}, {"measurement": "Ki", "setting": "GABAA α5β3γ2; ref Dawson et al., 2006", "result": 0.7, "unit": "nM"}, {"measurement": "Ki", "setting": "GABAA α1β3γ2; ref Dawson et al., 2006", "result": 0.9, "unit": "nM"}, {"measurement": "reason why development was stopped", "setting": "preclinical species", "result": "renal toxicity in preclinical species"}, {"measurement": "Ki", "setting": "GABAA α2β3γ2; ref Dawson et al., 2006", "result": 0.6, "unit": "nM"}, {"measurement": "alcohol-induced impairment in word list recall", "setting": "humans", "result": "reversed an alcohol-induced impairment in word list recall"}]}
{"smiles": "[3H]C([3H])([3H])N1Cc2c(C(=O)OCC)ncn2-c2ccc(N=[N+]=[N-])cc2C1=O", "note": "[Ro 15-4513, ethyl 8-azido-6-oxo-5-(tritritiomethyl)-4H-imidazo[1,5-a][1,4]benzodiazepine-3-carboxylate]", "values": [{"measurement": "Kd", "setting": "human α6β3γ2", "result": 1.83, "unit": "nM"}]}
{"smiles": "Cc1cc(-c2nncc3c(C(C)(C)C)c(OCc4ncnn4C)nn23)no1", "note": "[MRK-016, 3-tert-butyl-7-(5-methylisoxazol-3-yl)-2-(1-methyl-1H-1,2,4-triazol-5-ylmethoxy)-pyrazolo[1,5-d]-[1,2,4]triazine]", "values": [{"measurement": "reason why development was stopped", "setting": "healthy elderly humans", "result": "poor tolerability in healthy elderly humans"}, {"measurement": "Ki", "setting": "GABAA α5β3γ2; ref Atack et al. 2009", "result": 1.4, "unit": "nM"}, {"measurement": "Ki", "setting": "GABAA α1β3γ2; ref Atack et al. 2009", "result": 0.8, "unit": "nM"}, {"measurement": "Ki", "setting": "GABAA α2β3γ2; ref Atack et al. 2009", "result": 0.9, "unit": "nM"}]}
